In article PMC12750388, “Coumarin-1,2,3-Triazole Conjugates as Molecular Scaffolds for the Selective Induction of ROS-Driven Apoptosis in Cancer Cells in the Development of Pyruvate Kinase M2 Inhibitors” (ACS Omega, 2025):

Columns and labels:
SCC-9 cells [1] = assay: MTT cell viability with N-acetyl-L-cysteine pretreatment; format: cell-based, human; settings: SCC-9, 48 h; 7f 1 × IC50, menadione 20 μM
Experimental: The production of reactive oxygen species (ROS) was assessed by the detection of hydrogen peroxide (H2O2) using the ROS-Glo H2O2 assay kit (Promega Corporation, Madison, WI, USA; G8820). […] A plate with wells without cells was used as a control. Cells and cell-free wells remained in treatment at times of interest, and 2 h before completion of the times, well volumes were removed to reduce to 40 μL per well. Then the positive control of menadione (Sigma-Aldrich Co., St. Louis, MO, USA), a polycyclic aromatic ketone based on 1,4-naphthoquinone, was used to treat its respective well, and H2O2 substrate from the kit was added for all treatments, followed by the incubation of the plate for the remaining 2 h. Then the detection solution was added, and the plates remained at room temperature for 20 min, following the reading in the TD 20/20 luminometer (Turner Designs, Sunnyvale, CA, USA). The reading of bioluminescence detected is indicated as arbitrary units (a.u.). Additionally, the cell viability was assessed through pretreatment of cells with 10 mM N-acetyl-L-cysteine (NAC) (Sigma-Aldrich Co., St. Louis, MO, USA) for 2 h. […] At the end of the time, the MTT cell viability assay was performed.

[2] = system: Primary Gingival Fibroblast; assay: MTT cell viability assay, normal cells; format: cell-based, human
Experimental: (§1) The viability of SCC cell lines and primary human fibroblast cells was evaluated using the MTT assay to determine half maximal inhibitory concentration (IC50). Briefly, cells were grown in triplicate in 96-well plates (5 × 10^3 cells/well) until confluence. Then the medium was removed, fresh medium was added, and the cells were returned to the incubator in the presence of different compounds. DMSO at the same concentrations was used as a 100% cell viability control. After 48 h, cells were incubated with 5 mg/mL MTT reagent (3-(4,5-dimethyl-2-thiazolyl)-2,5-diphenyl-2-H-tetrazolium bromide) (Sigma-Aldrich Co., St. Louis, MO, USA) for 3.5 h. After that, formazan crystals were dissolved in MTT solvent solution (DMSO/methanol 1:1 v/v), and the absorbance at 560 nm was evaluated using an EPOCH microplate spectrophotometer (BioTek Instruments, Winooski, VT, USA) with the background absorbance at 670 nm subtracted. Each of the 12 compounds (7a–7l) was tested at six different concentrations, ranging from 6.25 to 200 μM in cancer and normal cell lines. Control (carboplatin) was tested at six different concentrations ranging from 25 μM to 800 μM in cancer cells and from 50 μM to 1600 μM in normal cells.
(§2) Half-maximal inhibitory concentration (IC50) values were obtained from the MTT assay of at least three independent replicates through nonlinear regression analysis using GraphPad Prism 5.0 software (Intuitive Software for Science, San Diego, CA, USA). Data were presented as means ± standard deviation (SD). A log dose–response curve (inhibitor vs response) using the least-squares method was used to determine the IC50 and SD from the data. The selectivity index (SI) was calculated as the ratio between the IC50 in normal cells and the IC50 in cancer cells, obtained by dividing the IC50 of normal cells by the IC50 of cancer cells.

4T1 = assay: MTT cell viability assay, 4T1; format: cell-based, murine
SCC-9 cells [3] = assay: Cytotoxicity assay (cell death inhibition) with z-VAD-fmk and necrostatin-1; format: cell-based; settings: SCC-9, 2 × IC50 7f, 24 h
Experimental: This investigation consists of pretreating cells with different death inhibitors. For this assay, day SCC-9 cells were seeded in a 96-well plate, and the next day, they were pretreated for 2 h with 20 μM z-VAD-fmk (ZVAD) (Promega Corporation, Madison, WI, USA) and 20 μM necrostatin-1 (Nec-1) (Sigma-Aldrich Co., St. Louis, MO, USA) alone or in combination. […] The plate was incubated for 24 h, and the result was determined through an MTT cell viability assay. The absorbance was measured with an EPOCH (BioTek Instruments, Winooski, VT, USA) spectrometer at 560 nm.

SCC-9 cell line = assay: MTT cell viability assay, SCC-9; format: cell-based, human
Experimental: as §1, §2

erythrocytes = assay: Hemolysis assay; format: cell-based; settings: human erythrocytes, 300 μM
Experimental: A hemolysis assay to evaluate surfactant effects of tested substances was performed using human blood approved by the Research Ethics Committee of Universidade Federal Fluminense (CAAE: 43134721.4.0000.5626). Erythrocytes are isolated upon three repeated centrifugation cycles at 1500 rpm for 15 min. Between each cycle of centrifugation, supernatant was removed, and a pH 7.5 PBS (phosphate-buffered saline) solution supplemented with 10 mM glucose was added to remove lysed erythrocytes. The number of cells was determined in an Automatic Cell Counter (Thermo Fisher, Waltham, MA, USA). Erythrocytes were then plated in 96-well plates at a concentration of 4 × 10^8 cells/well in triplicates, and 10 μL of compounds were added at a final concentration of 300 μM in PBS with glucose (final volume 100 μL). Ten μL of PBS was used as a negative control, and 10 μL of PBS with 0.1% Triton X-100 was used as a positive control. Data reading was performed with EPOCH (BioTek Instruments, Winooski, VT, USA) at an absorbance of 540 nm.

SCC-9 cells [4] = assay: Cell cycle and sub-G1 analysis by flow cytometry; format: cell-based, human
Experimental: The interference of 7f in the cell cycle (G1, […], and G2/M) and DNA fragmentation (sub-G1) was assessed by flow cytometry analysis using a Guava Muse Cell Analyzer (Cytek Biosciences, Fremont, CA, USA). DNA staining was conducted using a pH 7.6 propidium iodide buffer composed of 3.4 mM Trizma Hydrochloride (Sigma-Aldrich Co., St. Louis, MO, USA), 10 mM NaCl (Sigma-Aldrich Co., St. Louis, MO, USA), 0.1% (v/v) NP40 (Sigma-Aldrich Co., St. Louis, MO, USA), 700 U/L RNase, and 0.075 mM propidium iodide (Sigma-Aldrich Co., St. Louis, MO, USA). An amount of 1 × 10^5 and 5 × 10^5 SCC-9 cells were seeded in six-well plates for the treatment with the negative control (DMSO) and 7f, respectively. […] Cells were then trypsinized and stained with propidium iodide buffer. DNA content was analyzed by collecting 10,000 events in the aforementioned cytometer. Data were analyzed using Flowing Software (Turku Biosciences, Turku, Finland).

SCC-25 = assay: MTT cell viability assay, SCC-25; format: cell-based, human
Experimental: as §1, §2

For `O=C1C=C(OCc2cn(CCCOc3cc(=O)oc4ccccc34)nn2)C(=O)c2ccccc21` [Compound 7f, 2-((1-(3-((2-Oxo-2H-chromen-4-yl)oxy)propyl)-1H-1,2,3-triazol-4-yl)methoxy)naphthalene-1,4-dione], the “cell viability in the presence of 10 mM N-acetyl-L-cysteine (NAC)” value (SCC-9 cells [1]) was “NAC protected cell death”, the IC50 ([2]; Homo sapiens, Fibroblast, MTT, 48 h, normal cells) was 22.8 µM and the “Average SI” value ([2]; average of SI for SCC-9, SCC-4 and SCC-25 versus gingival fibroblast) was 2.26. The IC50 (4T1; Mus musculus, 4T1, MTT, murine breast cancer) was 7.63 µM, the “SI 4T1” value (4T1; versus human gingival fibroblast) was 2.98 and the “cell death after pretreatment with 20 μM z-VAD-fmk (ZVAD)” value (SCC-9 cells [3]) was “significantly attenuated”. The “cytotoxic effect after pretreatment with 20 μM necrostatin-1 (Nec-1), alone or with ZVAD” value (SCC-9 cells [3]) was “failed to reverse the cytotoxic effect”, the IC50 (SCC-9 cell line; Homo sapiens, SCC-9, MTT, 48 h) was 12.3 µM and the “SI SCC-9” value (SCC-9 cell line; IC50 human gingival fibroblast / IC50 SCC-9) was 1.85. For the same molecule, the “hemolytic activity / membrane integrity” value (erythrocytes) was “lack of significant hemolytic activity”, the “S-phase arrest versus control (DMSO)” value (SCC-9 cells [4]; SCC-9, 2 × IC50, 24 h) was “approximately twice as frequent as in the control group” and the “cell cycle S population” value (SCC-9 cells [4]; SCC-9, 2 × IC50, 24 h (DMSO 12.33%)) was 22.99%. For the same molecule, the “cell cycle G2/M population” value (SCC-9 cells [4]; SCC-9, 2 × IC50, 24 h (DMSO 22.59%)) was 14.45%, the “cell cycle G1 population” value (SCC-9 cells [4]; SCC-9, 2 × IC50, 24 h (DMSO 64.99%)) was 62.31% and the “Sub-G1 population (DNA fragmentation)” value (SCC-9 cells [4]; SCC-9, 2 × IC50, 48 h (DMSO 5.04%)) was 29.84%. The “increase in the sub-G1 population” value (SCC-9 cells [4]; SCC-9, 48 h, versus DMSO) was 5 fold, the IC50 (SCC-25; Homo sapiens, SCC-25, MTT, 48 h) was 11.1 µM and the “SI SCC-25” value (SCC-25; IC50 human gingival fibroblast / IC50 SCC-25) was 2.05.
